Molecular target: T1, Human prostaglandin E2 receptor 4 (EP4) (Homo sapiens, UniProt P35408)
T1 construct: expressed in transfected cells; host or cells: HEK293 cells transduced with EP4 BacMam virus
Test: cAMP Gs Functional Assay (HTRF cAMP dynamic-2), antagonism of PGE2
Format: cell-based
Details: HEK293 cells transfected with EP4 BacMam virus; PGE2 challenge at EC80 (7 nM); pIC50 converted to functional pKb with a modified Cheng Prussoff equation; read-out: Human EP4 fpKb (converted)
Outline: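 HEK293 cells transiently expressing human EP4 via BacMam (36 h), preincubated with compound 30 min at 37 °C in DMEM + 0.5 mM IBMX, 5000 cells/well, then challenged with EC80 PGE2 (7 nM). cAMP read by HTRF; pIC50 converted to pKb by modified Cheng-Prusoff using agonist EC50 and challenge concentration.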

T1 sequence (P35408 whole entry): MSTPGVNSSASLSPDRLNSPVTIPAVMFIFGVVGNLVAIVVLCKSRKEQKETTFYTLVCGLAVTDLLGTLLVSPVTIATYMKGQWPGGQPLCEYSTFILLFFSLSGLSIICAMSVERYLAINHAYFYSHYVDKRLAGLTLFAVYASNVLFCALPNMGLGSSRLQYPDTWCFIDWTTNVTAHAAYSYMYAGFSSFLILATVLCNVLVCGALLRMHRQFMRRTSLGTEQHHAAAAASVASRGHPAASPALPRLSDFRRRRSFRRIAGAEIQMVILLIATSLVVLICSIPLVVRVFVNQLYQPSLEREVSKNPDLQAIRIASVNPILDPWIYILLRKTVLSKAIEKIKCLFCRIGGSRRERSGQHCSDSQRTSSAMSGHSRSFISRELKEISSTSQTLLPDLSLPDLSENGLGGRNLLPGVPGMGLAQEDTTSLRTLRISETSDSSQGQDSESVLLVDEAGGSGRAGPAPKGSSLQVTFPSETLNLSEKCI

Row | Ki [nM] | Compound
1 | 79.4 | CS(=O)(=O)c1cccc(COC(C(=O)NC2(c3ccc(C(=O)O)cc3)CC2)C2CCC2)c1 (stereo not shown) [Example 95, 4-(1-(2-cyclobutyl-2-((3-(methylsulfonyl)benzyl)oxy)acetamido)cyclopropyl)benzoic acid]
2 | 3.63 | C[C@H](NC(=O)C(OCc1ccc(C(F)(F)F)cc1)C1CCC1)c1ccc(C(=O)O)cc1 (single isomer, unassigned) [Example 93]
3 | 1.66 | COCc1cccc(CO[C@@H](C(=O)N[C@@H](C)c2ccc(C(=O)O)cc2)C(C)C)c1 [Example 40, 4-((S)-1-((R)-2-((3-(methoxymethyl)benzyl)oxy)-3-methylbutanamido)ethyl)benzoic acid]
4 | 0.447 | CC(C)C(OCc1cccc(C2COC2)c1)C(=O)NC1(c2ccc(C(=O)O)cc2)CC1 (single isomer, unassigned) [Example 86, 4-(1-(3-methyl-2-((3-(oxetan-3-yl)benzyl)oxy)butanamido)cyclopropyl)benzoic acid]
5 | 0.195 | CC(C)[C@@H](OCc1cccc(C2CC2)c1)C(=O)NC1(c2ccc(-c3nnn[nH]3)cc2)CC1 [Example 80, (R)-2-((3-cyclopropylbenzyl)oxy)-N-(1-(4-(2,3-dihydro-1H-tetrazol-5-yl)phenyl)cyclopropyl)-3-methylbutanamide]
6 | 7.24 | CCS(=O)(=O)c1cccc(CO[C@@H](C(=O)NC2(c3ccc(C(=O)O)cc3)CC2)C(C)C)c1 [Example 56, (R)-4-(1-(2-((3-(ethylsulfonyl)benzyl)oxy)-3-methylbutanamido)cyclopropyl)benzoic acid]
7 | > 12900 | CC(C)[C@@H](OCc1ccc(O)cc1)C(=O)N[C@@H](C)c1ccc(C(=O)O)cc1 [Example 41, 4-((S)-1-((R)-2-((4-hydroxybenzyl)oxy)-3-methylbutanamido)ethyl)benzoic acid]
8 | 0.575 | CC(C)[C@@H](OCc1ccnc(OC(F)F)c1)C(=O)NC1(c2ccc(C(=O)O)cc2)CC1 [Example 67, (R)-4-(1-(2-((2-(difluoromethoxy)pyridin-4-yl)methoxy)-3-methylbutanamido)cyclopropyl)benzoic acid]
9 | 4.17 | CC(C)[C@@H](OCc1ccc(F)cc1)C(=O)N[C@@H](C)c1ccc(C(=O)O)cc1 [Example 5, 4-((S)-1-((R)-2-((4-fluorobenzyl)oxy)-3-methylbutanamido)ethyl)benzoic acid]

Continued, compound first:

Row | Compound | Ki [nM]
10 | CC(C)C(OCc1cccc(F)c1)C(=O)N[C@@H](C)c1ccc(C(=O)O)cc1 (single isomer, unassigned) [Example 17] | 3.02
11 | O=C(O)c1ccc(C2(NC(=O)[C@H](OCc3cccc(OC(F)F)c3)C3CCC3)CC2)cc1 [Example 101, (R)-4-(1-(2-cyclobutyl-2-((3-(difluoromethoxy)benzyl)oxy)acetamido)cyclopropyl)benzoic acid] | 0.851
12 | CC(C)[C@@H](OCc1ccc(C(F)(F)F)cc1)C(=O)NC1(c2ccc(C(=O)O)cc2)CCC1 [Example 73, (R)-4-(1-(3-methyl-2-((4-(trifluoromethyl)benzyl)oxy)butanamido)cyclobutyl)benzoic acid] | 182
13 | CC(C)[C@@H](OCc1cccc(S(C)(=O)=O)c1)C(=O)NC1(c2ccc(C(=O)O)cc2)CC1 [Example 33, (R)-4-(1-(3-methyl-2-((3-(methylsulfonyl)benzyl)oxy)butanamido)cyclopropyl)benzoic acid] | 14.5
14 | CC(C)[C@@H](OCc1ccn2ccnc2c1)C(=O)N[C@@H](C)c1ccc(C(=O)O)cc1 [Example 66, 4-((S)-1-((R)-2-(imidazo[1,2-a]pyridin-7-ylmethoxy)-3-methylbutanamido)ethyl)benzoic acid] | 34.7
15 | CC(C)[C@@H](OCc1ccc(C(F)(F)F)cc1)C(=O)NC(C)(C)c1ccc(C(=O)O)cc1 [Example 64, (R)-4-(2-(3-methyl-2-((4-(trifluoromethyl)benzyl)oxy)butanamido)propan-2-yl)benzoic acid] | 47.9
16 | CC(C)[C@@H](OCc1ccc(F)cc1)C(=O)NC1(c2ccc(C(=O)O)cc2)CC1 [Example 31, (R)-4-(1-(2-((4-fluorobenzyl)oxy)-3-methylbutanamido)cyclopropyl)benzoic acid] | 2.24
17 | CC(C)[C@@H](OCc1ccc(C(F)F)cn1)C(=O)NC1(c2ccc(C(=O)O)cc2)CC1 [Example 88, (R)-4-(1-(2-((5-(difluoromethyl)pyridin-2-yl)methoxy)-3-methylbutanamido)cyclopropyl)benzoic acid] | 11.7
18 | CC(C)[C@@H](OCc1ccc(Cl)c(F)c1)C(=O)NC1(c2ccc(C(=O)O)cc2)CC1 [Example 79] | 2.45
19 | CC(C)[C@@H](OCc1ccc(C(F)(F)F)cc1)C(=O)NC1(c2ccc(C(=O)NS(C)(=O)=O)cc2)CC1 [Example 63, (R)-4-(1-(3-methyl-2-((4-(trifluoromethyl)benzyl)oxy)butanamido)cyclopropyl)-N-(methylsulfonyl)benzamide] | 25.7
20 | CC(C)[C@@H](OCc1ccc(F)cc1)C(=O)NC1(c2ccc(-c3nnn[nH]3)cc2)CC1 [Example 70, (R)—N-(1-(4-(1H-tetrazol-5-yl)phenyl)cyclopropyl)-2-((4-fluorobenzyl)oxy)-3-methylbutanamide] | 6.92
21 | CC(C)[C@@H](OCc1cc(OC(F)F)ccn1)C(=O)N[C@@H](C)c1ccc(C(=O)O)cc1 [Example 77, 4-((S)-1-((R)-2-((4-(difluoromethoxy)pyridin-2-yl)methoxy)-3-methylbutanamido)ethyl)benzoic acid] | 27.5
22 | O=C(O)c1ccc(C2(NC(=O)C(OCc3ccc(C(F)(F)F)cc3)C3CCC3)CC2)cc1 (stereo not shown) [Example 96, 4-(1-(2-cyclobutyl-2-((4-(trifluoromethyl)benzyl)oxy)acetamido)cyclopropyl)benzoic acid] | 6.61
23 | CC(C)[C@@H](OCc1cccc(OC(F)F)c1)C(=O)NC1(c2ccc(C(=O)O)cc2)CC1 [Example 52, (R)-4-(1-(2-((3-(difluoromethoxy)benzyl)oxy)-3-methylbutanamido)cyclopropyl)benzoic acid] | 0.389
24 | CC(C)[C@@H](OCc1ccc(C#N)cc1)C(=O)N[C@@H](C)c1ccc(C(=O)O)cc1 [Example 21, 4-((S)-1-((R)-2-((4-cyanobenzyl)oxy)-3-methylbutanamido)ethyl)benzoic acid] | 33.1
25 | CC(C)[C@H](OCc1ccc(C(F)(F)F)cc1)C(=O)N[C@@H](C)c1ccc(C(=O)O)cc1 [Example 16, 4-((S)-1-((S)-3-methyl-2-((4-(trifluoromethyl)benzyl)oxy)butanamido)ethyl)benzoic acid] | 178
26 | CC(C)[C@@H](OCc1cccc(OC(F)(F)F)c1)C(=O)NC1(c2ccc(C(=O)O)cc2)CC1 [Example 58, (R)-4-(1-(3-methyl-2-((3-(trifluoromethoxy)benzyl)oxy)butanamido)cyclopropyl)benzoic acid] | > 12900
27 | C[C@H](NC(=O)C(OCc1ccc(C(F)(F)F)cc1)C1CCC1)c1ccc(C(=O)O)cc1 (mixture of isomers) [Example 92, 4-((1S)-1-(2-cyclobutyl-2-((4-(trifluoromethyl)benzyl)oxy)acetamido)ethyl)benzoic acid] | 4.68
28 | CC(C)[C@@H](OCc1cccc(S(=O)(=O)C2CC2)c1)C(=O)N[C@@H](C)c1ccc(C(=O)O)cc1 [Example 90, 4-((S)-1-((R)-2-((3-(cyclopropylsulfonyl)benzyl)oxy)-3-methylbutanamido)ethyl)benzoic acid] | 29.5

Reference: patent US12391641B2, “Prostaglandin EP4 receptor antagonist compounds” (NXERA PHARMA UK LIMITED, priority 2019, dated 2025)
